One data set has as its target dopamine-D2 (Homo sapiens, UniProt P14416). The settings on record: Janssen et al., J. Pharmacol. Exp. Ther. 244 (2):685-693 (1988); cited from earlier work.
Data set [1] in a line: Solubility in the real time in vitro dissolution receiving medium. The settings on record: 50 mM tris buffer, 37 °C, pH 7.4, aqueous buffer.

dopamine-D2, sequence (P14416 whole entry): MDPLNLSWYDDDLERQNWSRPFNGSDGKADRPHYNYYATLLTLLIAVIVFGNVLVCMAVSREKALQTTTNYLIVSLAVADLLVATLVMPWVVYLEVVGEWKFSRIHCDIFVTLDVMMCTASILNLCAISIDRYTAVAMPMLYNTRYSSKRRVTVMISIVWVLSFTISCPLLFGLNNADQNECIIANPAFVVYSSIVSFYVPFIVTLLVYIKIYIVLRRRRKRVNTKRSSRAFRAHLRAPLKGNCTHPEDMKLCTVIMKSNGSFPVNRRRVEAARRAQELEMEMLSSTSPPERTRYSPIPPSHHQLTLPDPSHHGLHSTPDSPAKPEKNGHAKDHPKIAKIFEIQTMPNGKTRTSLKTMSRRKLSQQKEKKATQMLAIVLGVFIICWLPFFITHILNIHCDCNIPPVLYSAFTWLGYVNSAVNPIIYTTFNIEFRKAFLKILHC

By solubility is commonly meant the concentration that dissolves in the medium under given conditions. Take `Cc1nc2n(c(=O)c1CCN1CCC(c3noc4cc(F)ccc34)CC1)CCCC2` [Risperidone, 3-[2-[4-(6-fluoro-1,2-benzisoxazol-3-yl)-1-piperidinyl)ethyl]-6,7,8,9-tetrahydro-2-methyl-4H -pyrido[1,2-a]pyrimidin-4-one]: on dopamine-D2, the “activity in tests related to dopamine-D2 antagonism” value is listed as “showed activity in all tests related to dopamine-D2 antagonism”. In data set [1], this molecule had a solubility of at least 500 µg/mL.
